According to PMC6828813, “Biochemical characterisation of four rhamnosidases from thermophilic bacteria of the genera Thermotoga, Caldicellulosiruptor and Thermoclostridium” (Scientific Reports, 2019):
One block for each molecule: values may come before it.

Columns and labels:
Ts_Ram106B [1] = biological target: T1, Ts_Ram106B (Thermoclostridium stercorarium, UniProt L7VK28); assay: product inhibition of pNPR hydrolysis, pNP absorbance at […] nm; format: biochemical; settings: read-out: Ki^b, α^b (mM rhamnose)
T1 construct: gene Cst_c00400

Tm_Ram106B [2] = biological target: T2, Tm_Ram106B (Thermotoga maritima, UniProt Q9X0G3); assay: as above; format: biochemical; settings: read-out: Ki^b, α^b (mM rhamnose)
T2 construct: gene TM_1074

Tn_Ram106B [3] = biological target: T3, Tn_Ram106B (Thermotoga neapolitana, UniProt B9K9N8); assay: as above; format: biochemical; settings: read-out: IC50 (at Km or Kprime)
T3 construct: gene CTN_1495

Tm_Ram106B [4] = biological target: T2, Tm_Ram106B; assay: as above; format: biochemical; settings: read-out: IC50 (at Km or Kprime)
Tn_Ram106B [5] = biological target: T3, Tn_Ram106B; assay: as above; format: biochemical; settings: read-out: Ki^b, α^b (mM rhamnose)
Ts_Ram106B [6] = biological target: T1, Ts_Ram106B; assay: as above; format: biochemical; settings: read-out: IC50 (at Km or Kprime)
Cb_Ram106B [7] = biological target: T4, Cb_Ram106B (Caldicellulosiruptor bescii, UniProt B9MP87); assay: as above; format: biochemical; settings: read-out: IC50 (at Km or Kprime)
T4 construct: gene Athe_2581
T4 sequence (B9MP87 entry or part of it): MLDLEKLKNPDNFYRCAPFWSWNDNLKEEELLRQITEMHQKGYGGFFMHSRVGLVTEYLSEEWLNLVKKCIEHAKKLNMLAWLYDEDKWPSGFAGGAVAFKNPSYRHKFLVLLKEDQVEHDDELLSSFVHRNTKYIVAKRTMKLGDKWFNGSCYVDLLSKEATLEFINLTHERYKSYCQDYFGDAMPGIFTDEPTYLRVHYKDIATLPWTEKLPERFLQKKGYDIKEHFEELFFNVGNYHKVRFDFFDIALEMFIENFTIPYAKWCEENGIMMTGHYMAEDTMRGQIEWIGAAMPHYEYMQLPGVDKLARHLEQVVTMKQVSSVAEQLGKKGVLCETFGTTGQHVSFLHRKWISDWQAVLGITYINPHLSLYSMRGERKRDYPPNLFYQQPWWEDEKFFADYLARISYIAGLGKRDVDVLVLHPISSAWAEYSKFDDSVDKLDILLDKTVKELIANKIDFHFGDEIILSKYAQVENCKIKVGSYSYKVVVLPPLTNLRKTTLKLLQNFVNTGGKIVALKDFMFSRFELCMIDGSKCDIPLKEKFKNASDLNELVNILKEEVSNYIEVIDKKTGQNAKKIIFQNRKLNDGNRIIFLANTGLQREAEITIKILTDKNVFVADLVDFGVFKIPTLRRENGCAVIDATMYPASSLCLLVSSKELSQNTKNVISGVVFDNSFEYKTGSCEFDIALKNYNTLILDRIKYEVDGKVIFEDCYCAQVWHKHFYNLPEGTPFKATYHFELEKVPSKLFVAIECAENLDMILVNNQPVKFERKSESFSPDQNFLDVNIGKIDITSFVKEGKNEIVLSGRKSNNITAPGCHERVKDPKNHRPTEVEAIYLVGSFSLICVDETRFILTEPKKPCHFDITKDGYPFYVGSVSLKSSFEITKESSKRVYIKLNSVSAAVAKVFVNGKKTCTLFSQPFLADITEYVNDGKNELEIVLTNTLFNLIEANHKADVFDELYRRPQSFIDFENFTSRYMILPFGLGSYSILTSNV

Cb_Ram106B [8] = biological target: T4, Cb_Ram106B; assay: pNP release, absorbance at […] nm, Hill fit; format: biochemical; settings: Kprime = Khalf^h, Hill coefficient h = 1.64 ± 0.20; 1 mM CoCl2, 100 mM MOPS pH 7 (RT), 70 °C
purified protein [9] = substrate: C[C@@H]1O[C@@H](Oc2ccc([N+](=O)[O-])cc2)[C@H](O)[C@H](O)[C@H]1O; assay: purified protein; format: biochemical, Thermotoga maritima; settings: 1 mM CoCl2, 100 mM MOPS pH 7 (RT), 80 °C
purified protein [10] = substrate: C[C@@H]1O[C@@H](Oc2ccc([N+](=O)[O-])cc2)[C@H](O)[C@H](O)[C@H]1O; assay: purified protein; format: biochemical, Thermoclostridium stercorarium; settings: 1 mM CoCl2, 100 mM MOPS pH 7 (RT), 55 °C
purified protein [11] = substrate: C[C@@H]1O[C@@H](Oc2ccc([N+](=O)[O-])cc2)[C@H](O)[C@H](O)[C@H]1O; assay: purified protein; format: biochemical, Thermotoga neapolitana; settings: 1 mM CoCl2, 100 mM MOPS pH 7 (RT), 80 °C

Ki (Ts_Ram106B [1]): 4.94 ± 0.75 mM
Ki (Tm_Ram106B [2]): 2.37 ± 0.13 mM
IC50 (Tn_Ram106B [3]): 6.5 mM
IC50 (Tm_Ram106B [4]): 4.9 mM
Ki (Tn_Ram106B [5]): 5.5 ± 1.01 mM
IC50 (Ts_Ram106B [6]): 8.3 mM
IC50 (Cb_Ram106B [7]): 5.5 mM
Molecule: C[C@@H]1O[C@@H](O)[C@H](O)[C@H](O)[C@H]1O [rhamnose]

Km or Kprime, h^b,c (Cb_Ram106B [8]): 1290 ± 230 µM
Molecule: C[C@@H]1O[C@@H](Oc2ccc([N+](=O)[O-])cc2)[C@H](O)[C@H](O)[C@H]1O [pNPR, para-nitrophenyl-α-L-rhamnopyranoside]

B1: Tm_Ram106B (Thermotoga maritima MSB8) (protein)
chain: MNLKDLENPGVWYRPAPFWSWNDKLCEEELLRQIDEMYEKGYGGFFMHSRVGLVTEYLSEEWMRLVRSCAEHARKLGMLAWLYDEDKWPSGFAGGIVPLEKPEHRHKYLTLLKKDQIKPEDEILKKIERDGEEFYVVKRVMKLGDPWFNGTCYVDLLSRETTEAFLRSTHERYKKSCGDLFRVSIPGIFTDEPTYLRVHHPKETTLPWTERFPEEFLRRKGYDIRDHLEELFFNVKDYMKVRYDFFDVATSLFIENFTIPYAKWCEENGIFMTGHYMAEDTLRGQVEWIGAAMPHYEYMQIPGIDKLARHLEQVVTIKQVSSAAEQLGKKWVLCETFGTTGQHVSFLHRKWIADWQAVLGVTYINPHLSLYSMRGERKRDYPPNLFYQQPWWKNERFLSDYFARLNHIVTQGKREVKVLMIHPISSAWCVYSKFDDEIDKLNELFDTITKELVANKIDFHFGDEMILSKHGRVKEAKLRVGEYEYEVVVLPPLLNLKSSTVELLNSLAENGGKVFVLKDFRYGRFFPERVEGKKGRIEFLKKARVFETLEDLIEELKPFFSVDVLDTKTKENAKAVIAQKRVLEDGSYLLFLANTDIDREVHCHLELKEKRKHTYAIDLFNFKLVELKENEFVMFPASSVCIWVTDEEVPAEDEKVVSTGVLLEKEFDFETALNDFEVKMNSFNVLPVDRVEYFEAGGRVFRNEFVSKIWYEFYRLPDGTPFRVEYSFEVRKKPQKLFLVVECAENLDRITVNGREVRYERKSCIFNEEQNFLDVNFGKMEITDLVREGKNTVVLEGRKENNITGPGCHTRVKDPENHRPTEVETIYLVGDFSLVNVDETRYVIDAPKIPDHRDITRDGYPFYVGSFTLKKIFECKKDPGKRYFLKLNGVEAASVEVILNGKFLGVLFWRPFMIDITDALRNGKNELQLVLTNTLFNLIEANHKADVLEETFRRPKSFIDFEHHTDRYILLPFGLENVAVLSSSSR
K0.5 (purified protein [9]): 1.94 ± 0.20 mM
kcat (purified protein [9]): 217.8 ± 10.1 s⁻¹

B2: Ts_Ram106B (Thermoclostridium stercorarium subsp. stercorarium DSM 8532) (protein)
chain: MFFKNSREEFDESLFRNPTSEYRCAPFWAWNKKLDWEDMERHIEIFKEMGMGGFHIHSRIGLNTPYLSDEFLDYVKKCNAKAKELGMLTWLYDEDKWPSGFGGGFVTKDHNFRSRYLLFSPFYHQSGYYERHIPRENRLGIDGYLSLIAEYKVVLKNGYLSSYKRIESGDNDSAEGETWYAYRVISGDLPWFNNQAYVDTLNKKAVEKFIEVTHEKYFEILGGEFSKSVPAVFTDEPQFVLKQNLPEPDSRQEVGIPYTDLFEESFRQRFGCSFLDSLPEIFWELEGGKFSRIRYWYHEHIAELFASSFADTVGRWCREHNLMLTGHMMAESTLESQTRALGEAMRSYRSFDLPGVDILANKYEYSTVKQAQSVARQFGKAGVLSELYGVTNWDFDFRGHKLQGDWQAAMGVSVRVPHLSWLGMGGESKRDYPAPVDYHSPWYKKYHIIEDHFSRVNVCMTRGVPCVNIAVIHPIESYWLLWGPDSQTKQKRLKLQQEFESIIDWLLFSNLDFDFIAESMVKELYRGSGNRHTQFGDMKYEVLIVPELITIRSETVKMLINHLENGGKVIILGNLPKIIDGDSDRKFDIECLGECVINNSKYDLLDALEPFRQIDIVNRDSSRNENYLYQLRDEAECKWLFIAPGKPVEALKLPEEKVLTVKVRGSYEVWRYDTFTGEKQKIQARGKDGWTYFEQTAYEHDSFLYRLLKTGTNDTTEKSVSSGVGRQVNKGVKYIKYLNGPWEYRLSEKNVLLLDMARYSLDNGEISEREEVLRIDDKIRTKLGYPLRTDSFPQPWLSPAEAECPHTVKLYFEIESETDVHEAELAFEGKGVTAEWNNVAVTDRADGFFIDKCFNVMKLPGIKKGVNQLVLTVPFGEKTDLEWCFITGNFGTCVKGDKVIITNPPERLFFGDVTRQGLSFYGGNITYIVNIDVPEGEMTVEIPQYRGALVEVALDNAKKGDIIFSPYRLNLGYVSQGEHTIEITLYGNRFNMFGQLHNCNRVEKYYGPNTWRTKGNAFAYEYQLREFGIIAAPLIYIE
K0.5 (purified protein [10]): 1.90 ± 0.18 mM
kcat (purified protein [10]): 14.3 ± 0.5 s⁻¹

B3: Tn_Ram106B (Thermotoga neapolitana DSM 4359) (protein)
chain: MNLKDLENPGVWYRPAPFWSWNDKLCEEELLRQIDEMCEKGYGGFFMHSRVGLVTEYLSDEWMALVKRCAEHARKLGMLAWLYDEDKWPSGFAGGIVPLESDEYRHRFLVLLKKEQIEPGDEILKRIERGNEELFVVKRTMKLGDPWFNGTCYVDLLSKKVTEAFIRSTHEKYRKVCGEFFGSSIPGIFTDEPTYLRVHYPEIPTLPWTDRFPEEFLKRKGYDIREHFEELFFNTKDYMKVRYDFFDVATELFIENFTIPYAKWCEENGISMTGHYMAEDTLRGQVEWIGAAMPHYEYMQIPGVDKLARHLEQVITIKQVSSVAEQLRKKWVLCETFGTTGQHVSFLHRKWIADWQAVLGITYINPHLSLYSMRGERKRDYPPNLFYQQPWWKNEKRFSDYLARLNYLMTQGKREVKVLMIHPITSAWCVYSKFDDEIDKLNESFDRTVKELVSNKIDFHFGDETILSKHGRVSGEKLVVGNCEYDIVLVPPLLNLRRSTVDLLNEFSKNGGKILVLKDGNFFPERVEGRKEKPEFLKRARVFEDLQGLIDSLRDVAAVEVIDKKTGKNAKSVIAQKRLLENGSYIIFLANTDINREVHCQLNLKEEKRHIYAIDIFDFAVVEFSEREFTMHPASSLLIWVTDEEIPSQRRSVISTGVTLKREFELEMAFSEFETEMNGFNVLPVDRVDMFEADGKVFRDEYVSKIWYEFYRLPEGTPFGVVYSFEIREKPEKLFLVVECAENLDRITVNGHEAVFKKKGCTFTEEECFLDVNFGKMDITELVQVGKNIVVLEGKKSNNITGPGCHERVKNPENHRPTEVETIYLVGKFSLVNVDETKYVIDAPKTPDHKDITRSGYPFYVGSFTLRKTFEMKKDPKRRYFLKLNSVRAASVEVFLNEKFVGSLFWEPFMVEITDNLHDGKNELKLVLTNTLFNLIEANHKADVLEETFRRPWSFIDFEHHTDRYILLPFGLENAAVLSSFSP
K0.5 (purified protein [11]): 1.47 ± 0.14 mM
kcat (purified protein [11]): 146.8 ± 6.1 s⁻¹
